Measurements published in patent US6444706B2, “Guanidine derivatives, processes for preparing them and their use as pharmaceutical compositions” (priority 1996, dated 2002).

Key:
herpes virus = assay: Virus replication in infected cell cultures, plaque assay of supernatant; assay type: cell-based; conditions: Fibroblast, herpes-infected monkey kidney cells or human fibroblasts, 24 hours, read-out: IC50 (concentration at which virus replication is inhibited by 50%)
Description: The virostatic properties were determined by in vitro tests. The following virus strains were used:
Cell cultures (monkey kidney cells or human fibroblasts) are infected with herpes and a series of cultures are exposed to medium containing various concentrations of the test substance. After 24 hours the concentration of the virus descendants in the cell culture supernatant is determined by plaque assays.

[1] = target: T1, neutral SMase (membrane fraction isolated from mice brains) (Mus musculus, UniProt Q9JJY3); assay: Inhibition of neutral SMase (14C sphingomyelin hydrolysis); assay type: biochemical; conditions: 2 h, pH 7.5, read-out: nSMase activity
T1 construct: membrane fraction isolated from mice brains, 10 μg of protein/mixture [according to S. Gatt, Biochem. Biophys; Res. Commun; 68, 235-241 (1976)]
T1 sequence (Q9JJY3 1-655): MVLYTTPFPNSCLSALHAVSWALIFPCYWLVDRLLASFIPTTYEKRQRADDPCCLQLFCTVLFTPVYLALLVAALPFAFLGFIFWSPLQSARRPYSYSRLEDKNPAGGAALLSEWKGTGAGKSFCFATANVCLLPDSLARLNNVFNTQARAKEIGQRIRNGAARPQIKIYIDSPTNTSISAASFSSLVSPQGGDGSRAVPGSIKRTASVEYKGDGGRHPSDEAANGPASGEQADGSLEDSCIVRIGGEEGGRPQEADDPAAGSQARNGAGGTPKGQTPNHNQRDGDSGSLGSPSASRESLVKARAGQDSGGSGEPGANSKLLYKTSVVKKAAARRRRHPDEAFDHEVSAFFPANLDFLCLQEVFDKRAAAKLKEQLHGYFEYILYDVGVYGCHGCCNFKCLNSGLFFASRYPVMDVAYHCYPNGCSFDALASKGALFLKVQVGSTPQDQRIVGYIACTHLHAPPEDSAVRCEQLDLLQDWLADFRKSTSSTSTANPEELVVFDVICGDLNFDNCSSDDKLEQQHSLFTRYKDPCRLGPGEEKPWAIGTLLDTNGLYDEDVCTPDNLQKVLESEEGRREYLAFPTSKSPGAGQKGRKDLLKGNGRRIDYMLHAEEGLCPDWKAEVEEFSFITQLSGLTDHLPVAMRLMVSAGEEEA
Description: Then the samples were extracted with 5 times the volume of chloroform/methanol (1:1) and the content of radioactive phosphorylcholine in the aqueous phase was determined. The release of phosphorylcholine in the untreated mixtures corresponds to 100% enzyme activity.
The release of phosphorylcholine in the untreated batches corresponds to 100%.

[2] = test system: collagen-induced arthritis; assay: Inhibition of collagen-induced arthritis in the mouse; assay type: in vivo, DBA/I mice; conditions: for Total Symptoms: day 7 after booster injection, 10 animals
Description: An autoimmune reaction against cartilagenous tissue was produced by injecting collagen into DBA/I mice as described (Holmdahl, R. et al., Immunology, 65, 305-310, 1988). Groups of 10 animals were used as control or were given 50 mg/kg or 100 mg/kg of C11AG per day by oral route. The drug was administered in the food (Altromin, powdered food) and the dosage was calculated from the daily food intake. The symptoms were evaluated daily for each individual paw from 0.5-3 as described [R. Holmdahl, et al., Immunology, 65, 305-310, (1988)].
20 days after the booster injection the animals were killed and the joints were examined by histopathology resulting in the following picture: […]

[3] = test system: acidic SMase (microsome fraction from macrophage); assay: Inhibition of acidic SMase (14C sphingomyelin hydrolysis); assay type: biochemical; conditions: pH 5.6, untreated = 100%
Description: ^14C sphingomyelin (10 μg/ml) were incubated with neutral SMase (membrane fraction isolated from mouse brains, 10 μg protein/mixture, according to Gatt, S. Biochem. Biophys. Res. Commun. 68, 235-241, 1976) or with acidic SMase (microsome fraction from macrophage 5 μg of protein/mixture isolated according to Gatt, S. Biochem. Biophys. Res. Commun. 68, 235-241, 1976) in the presence of various concentrations of the test substances, for 2 hours at 37° C. in 20 mM Tris, 1 mM MgCl2, pH 7.5 (neutral SMase) or in 50 mM sodium acetate, 1 mM MgCl2, pH 5.6 (acid SMase). Then the samples were extracted with 5 times the volume of chloroform/methanol (1:1) and the content of radioactive phosphorylcholine in the aqueous phase was determined. The release of phosphorylcholine in the untreated mixtures corresponds to 100% enzyme activity.
^14C-sphingomyelin (10 μg/ml) was incubated with neutral SMase (membrane fraction from mouse brain, 10 μg of protein/batch, isolated according to Gatt, S. Biochem. Biophys. Res. Commun. 68, 235-241, 1976) or with acid SMase (microsome fraction from macrophages 5 μg of protein per batch [isolated according to S. Gatt, Biochem. Biophys. Res. Commun. 68, 235-241, (1976)] in the presence of various concentrations of the test substances for 2 hours at 37° C. in 20 mM Tris, 1 mM MgCl2, pH 7.5 (neutral SMase) or in 50 mM sodium acetate, 1 mM MgCl2, pH 5.6 (acidic SMase). Then the samples were extracted with 5 times the volume of chloroform/methanol (1:1) and the content of radioactive phosphorylcholine in the aqueous phase was determined. The release of phosphorylcholine in the untreated batches corresponds to 100%.

[4] = test system: endotoxin from E. coli (endotoxic shock); assay: Protection from endotoxic shock by C11AG in mice; assay type: in vivo, mice (strain NMRI/Nu); conditions: 50 mg/kg subcutaneously 30 minutes before 0.2 mg endotoxin i.p.; nine animals; all 10 controls died within 24 hours
Description: Mice (strain NMRI/Nu, 8 weeks old, female) were each given 0.2 mg of endotoxin from E. coli (Sigma, Munich) by intraperitoneal route. The 10 control animals, who had been given 0.2 ml of 5% glucose subcutaneously, died within 24 hours. Nine animals were injected subcutaneously with 50 mg/kg of C11AG 30 minutes before the endotoxin treatment. Of this group, only 2 animals died.

[5] = test system: RAW cells (mouse macrophage line); assay: Inhibition of NO-synthase induction in macrophages (nitrite in culture medium); assay type: cell-based; conditions: 10 ng/ml LPS, 16 hours, without C11AG 0.122
Description: RAW cells (mouse macrophage line, origin: American Type Culture Collection) were treated with 10 ng/ml of endotoxin from E. coli (LPS) in the presence of different concentrations of C11AG. After 16 hours the nitrite content in the culture medium was measured using the method described [K. Tschaikowsky, M. Meisner, F. Schonhuber and E. Rugheimer, Br. J. Pharmacol. 113 (3): 664-8 (1994)].
The inhibition of NO-synthase induction is graphically shown in FIG. 3; the NO2 concentration [OD measured at 540 nm] is plotted against the C11AG concentration [μg/ml] for 10 ng/ml of LPS.

[6] = test system: endotoxin from E. coli (lethal endotoxic shock); assay: Prevention of lethal endotoxic shock in the mouse by H2C11AG; assay type: in vivo, mice of the Balb C strain; conditions: 100 mg/kg by oesophageal tube 2 hours before 0.7 mg endotoxin i.p., 10 animals, observed 12 days
Description: 10 mice of the Balb C strain (about 8 weeks old) were given 0.7 mg of endotoxin from E. coli (in 0.2 ml of isotonic saline solution) by intraperitoneal injection. 10 animals were given 100 mg/kg of H2C11AG (dissolved in twice distilled water) by oesphageal tube 2 hours before the LPS treatment. The control animals were given water.

Compound N=C(N)NN=Cc1c[nH]c2ccccc12 [1-(indol-3-ylmethylene-amino)guanidine, 1-(Indol-3-ylmethylene-amino)guanidine] has an IC50 (herpes virus) of 19.8 µM.
Work on CCCCCCCCCCC=NNC(=N)N [C11AG, 1-(undecylideneamino)guanidine] yielded an activity at 1 µg/mL [1] of 61%, an activity at 10 µg/mL [1] of 18% and an activity at 100 µg/mL [1] of 0%. The “Total Symptoms” value ([2]; 50 mg/kg per day oral in food) was 4.5, the “Total Symptoms” value ([2]; 100 mg/kg per day oral in food) was 1 and the “histopathology of joints (inflammatory processes)” value ([2]; 50 and 100 mg/kg, 20 days after booster injection) was “no such inflammatory processes could be detected”. It also gave an aSMase activity ([3]; 1 μg/ml) of 101%, an aSMase activity ([3]; 10 μg/ml) of 102% and an aSMase activity ([3]; 100 μg/ml) of 31%. For the same compound, the IC50 (herpes virus) was 6.8 µM, the animals died [4] was 2 and the “OD 540 nm (nitrite content in culture medium)” value (shortened to “OD 540 nm”) ([5]; 0.5 μg/ml C11AG) was 0.091. For the same compound, the “OD 540 nm” value ([5]; 1 μg/ml C11AG) was 0.075, the “OD 540 nm” value ([5]; 2 μg/ml C11AG) was 0.054 and the “OD 540 nm” value ([5]; 3 μg/ml C11AG) was 0.05. For the same compound, the “OD 540 nm” value ([5]; 4 μg/ml C11AG) was 0.038.
For CCCCCCCCCCCNNC(=N)N [H2C11AG, 1-(undecylamino) guanidine], the activity at 1 µg/mL [1] was 73%, the activity at 10 µg/mL [1] was 22% and the activity at 100 µg/mL [1] was 2%. For the same compound, the survivors ([6]; control 2 survivors) was 9, the “survivors (%)” value ([6]; control 20%) was 90% and the aSMase activity ([3]; 1 μg/ml) was 100%. It also gave an aSMase activity ([3]; 10 μg/ml) of 97% and an aSMase activity ([3]; 100 μg/ml) of 32%.
CCCCCCCCCC=NNC(=N)N [1-(decylidene-amino)guanidine] gave an IC50 (herpes virus) of 28.9 µM.
Work on CCCCCCCC=NNC(=N)N [1-(octylidene-amino)guanidine] yielded an IC50 (herpes virus) of 49.7 µM.
In the case of CCCCCCCCCCCC=NNC(=N)N [1-(dodecylideneamino)guanidine], the IC50 (herpes virus) is reported as 3.2 µM.
N=C(N)NN=Cc1c2ccccc2cc2ccccc12 [1-(Anthracen-9-ylmethylene-amino)guanidine] gave an IC50 (herpes virus) of 1.5 µM.
CCCCCCCCC=NNC(=N)N [1-(nonylidene-amino)guanidine] was tested, and the IC50 (herpes virus) was 29 µM.
In the case of N=C(N)NN=C1C=Cc2cccc3cccc1c23 [1-(phenalen-1-ylidene-amino)guanidine, 1-(Phenalen-1-ylidene-amino)guanidine], the IC50 (herpes virus) is reported as 45.4 µM.
